{"source": "paper PMC4282169", "about": "(Nature, 2014)", "biological_target": "T1, BoGH5A (Bacteroides ovatus, UniProt A7LXT7)", "T1 sequence (A7LXT7 34-502 limits assumed)": "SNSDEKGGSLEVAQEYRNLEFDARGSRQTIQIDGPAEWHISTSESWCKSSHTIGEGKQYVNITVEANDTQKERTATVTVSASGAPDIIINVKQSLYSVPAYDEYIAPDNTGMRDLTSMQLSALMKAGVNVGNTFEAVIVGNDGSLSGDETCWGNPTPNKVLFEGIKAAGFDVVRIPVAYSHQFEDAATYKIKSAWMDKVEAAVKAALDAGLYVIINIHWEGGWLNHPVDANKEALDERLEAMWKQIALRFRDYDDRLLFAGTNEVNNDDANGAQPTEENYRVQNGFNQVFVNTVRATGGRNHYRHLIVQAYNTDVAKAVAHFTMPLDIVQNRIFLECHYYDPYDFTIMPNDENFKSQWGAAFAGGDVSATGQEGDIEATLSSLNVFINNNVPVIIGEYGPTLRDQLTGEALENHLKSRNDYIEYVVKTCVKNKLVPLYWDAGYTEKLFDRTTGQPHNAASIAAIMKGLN", "test": "2-chloro-4-nitrophenolate release, A405, continuous", "format": "biochemical", "conditions": "read-out: Km (mM) ^‡; 37 °C, 50 mM buffer at or near pH optimum (6.0-7.0)"}
{"compound": "O=[N+]([O-])c1ccc(O[C@@H]2O[C@H](CO)[C@@H](O[C@@H]3O[C@H](CO[C@H]4OC[C@@H](O)[C@H](O)[C@H]4O[C@@H]4O[C@H](CO)[C@H](O)[C@H](O)[C@H]4O)[C@@H](O[C@@H]4O[C@H](CO[C@H]5OC[C@@H](O)[C@H](O)[C@H]5O[C@@H]5O[C@H](CO)[C@H](O)[C@H](O)[C@H]5O)[C@@H](O[C@@H]5O[C@H](CO[C@H]6OC[C@@H](O)[C@H](O)[C@H]6O)[C@@H](O)[C@H](O)[C@H]5O)[C@H](O)[C@H]4O)[C@H](O)[C@H]3O)[C@H](O)[C@H]2O)c(Cl)c1", "note": "[XLLG-β-CNP]", "values": [{"measurement": "Km", "result": "0.145 ± 0.024", "unit": "mM"}]}
